# Residues, ends and D or L forms follow the SMILES beside them. No end group written: not given here.
# Tests used:
# [1] = target: T1, angiotensin converting enzyme (ACE) (Oryctolagus cuniculus, UniProt P12822); test: ACE assay with purified ACE enzyme (Inhibition of Angiotensin Converting Enzyme); assay type: biochemical; details: purified ACE enzyme (Sigma); for ACE inhibiting activity (in words): judged from IC50 values; for IC50: synthetic peptides, purity >95%
# T1 construct: purchased Sigma
# T1 sequence (P12822 34-1310): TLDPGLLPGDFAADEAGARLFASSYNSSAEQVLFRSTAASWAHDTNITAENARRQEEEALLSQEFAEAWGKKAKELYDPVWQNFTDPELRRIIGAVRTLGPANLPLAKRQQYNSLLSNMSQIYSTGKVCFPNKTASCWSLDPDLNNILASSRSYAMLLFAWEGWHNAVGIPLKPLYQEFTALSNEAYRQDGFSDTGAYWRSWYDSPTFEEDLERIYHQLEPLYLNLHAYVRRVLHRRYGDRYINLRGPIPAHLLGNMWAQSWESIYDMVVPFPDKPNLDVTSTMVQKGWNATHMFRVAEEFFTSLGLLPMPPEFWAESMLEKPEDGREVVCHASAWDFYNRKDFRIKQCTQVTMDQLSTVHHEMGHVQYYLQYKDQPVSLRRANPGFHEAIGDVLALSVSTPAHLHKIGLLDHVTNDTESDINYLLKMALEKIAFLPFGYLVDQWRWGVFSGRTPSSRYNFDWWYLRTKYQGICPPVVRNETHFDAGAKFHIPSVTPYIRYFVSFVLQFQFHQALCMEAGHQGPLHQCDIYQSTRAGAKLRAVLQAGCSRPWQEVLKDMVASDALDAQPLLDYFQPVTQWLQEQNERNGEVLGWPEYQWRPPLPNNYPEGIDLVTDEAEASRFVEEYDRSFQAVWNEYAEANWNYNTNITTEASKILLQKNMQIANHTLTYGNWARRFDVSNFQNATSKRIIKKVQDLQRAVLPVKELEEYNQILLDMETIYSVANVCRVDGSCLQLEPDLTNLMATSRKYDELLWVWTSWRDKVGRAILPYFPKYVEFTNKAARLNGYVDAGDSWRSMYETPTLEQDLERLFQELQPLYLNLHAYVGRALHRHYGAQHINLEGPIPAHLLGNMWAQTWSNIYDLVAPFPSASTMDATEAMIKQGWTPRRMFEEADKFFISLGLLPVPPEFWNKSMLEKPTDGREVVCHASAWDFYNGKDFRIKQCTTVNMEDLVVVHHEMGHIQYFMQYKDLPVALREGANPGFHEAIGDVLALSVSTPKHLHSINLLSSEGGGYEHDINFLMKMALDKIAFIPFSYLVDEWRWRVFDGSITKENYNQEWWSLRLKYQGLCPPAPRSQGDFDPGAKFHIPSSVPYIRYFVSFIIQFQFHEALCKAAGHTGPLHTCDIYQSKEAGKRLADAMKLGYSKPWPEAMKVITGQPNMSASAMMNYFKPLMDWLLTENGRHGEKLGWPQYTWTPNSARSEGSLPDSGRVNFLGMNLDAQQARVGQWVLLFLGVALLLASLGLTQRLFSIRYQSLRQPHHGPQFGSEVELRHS
# Experimental: In order to determine IC50 values for the peptides included in this invention, pure peptides (purity of >95% in weight) were prepared by custom solid-phase synthesis on a 10 μmol scale and subsequently purified by HPLC (synthesis and purification performed by Eurosequence, the Netherlands). Purified ACE enzyme (Sigma) was used for the ACE assay (Wu et al. 2002 J. Chromatography 950, 125-130). […] Finally, the peptides which are fragments of the amino acid sequences shown in SEQ ID NO: 1, SEQ ID NO: 2 and SEQ ID NO: 3, respectively SEQ ID NO: 7, SEQ ID NO: 8 and SEQ ID NO: 9 were tested for their ACE inhibiting activity.
# [2] = Bioavailability: peptide amount in plasma after oral administration to mice; assay type: in vivo; details: mouse, 500 ug, Balb/C mice, 500 μg each orally, two hours after administration, HPLC-MS
# Experimental: Peptides SEQ ID NO: 1, SEQ ID NO: 2 and SEQ ID NO: 3 (purity of >95% in weight, 500 μg each) were orally administered to mice (Balb/C, 3 months of age). After 2 hours, mice were sacrificed and a blood sample collected. After centrifugation of the blood sample (5 min, 3000 g) plasma was collected, dried and resuspended in ethyl acetate. The samples were then analyzed by HPLC-MS, and the amount of the peptides of this invention present in the plasma samples calculated using standard curves. Two hours after their oral administration, all three peptides were found in the plasma samples in the following amounts: SEQ ID NO: 1: 7.5 μg/ml, SEQ ID NO: 2: 1.2 μg/ml, and SEQ ID NO: 3: 0.9 μg/ml.
compound,measurement,setting,value
LSEPKV [SEQ ID NO: 6],ACE inhibiting activity (in words),[1],good ACE inhibitors
same,IC50,[1],397 µM
CC(C)C[C@H](NC(=O)[C@@H](N)CO)C(=O)N1CCC[C@H]1C(=O)N[C@@H](CCC(=O)O)C(=O)O [SEQ ID NO: 2] (H-SLPE-OH; N-terminus and C-terminus assumed),level at 2 h,[2],1.2 µg/mL
same,ACE inhibiting activity (in words),[1],strong inhibitors of ACE
same,IC50,[1],329 µM
NCCCC[C@H](NC(=O)[C@@H]1CCCN1C(=O)[C@H](CCC(=O)O)NC(=O)[C@@H](N)CO)C(=O)O [SEQ ID NO: 3] (H-SEPK-OH; N-terminus and C-terminus assumed),level at 2 h,[2],0.9 µg/mL
same,ACE inhibiting activity (in words),[1],strong inhibitors of ACE
same,IC50,[1],354 µM
FYGPIPNS [SEQ ID NO: 4],ACE inhibiting activity (in words),[1],good ACE inhibitors
same,IC50,[1],435 µM
CC(C)C[C@H](N)C(=O)N1CCC[C@H]1C(=O)N[C@@H](CCC(=O)O)C(=O)O [SEQ ID NO: 8] (H-Leu-Pro-Glu-OH; N-terminus and C-terminus assumed),ACE inhibiting activity (in words),[1],good ACE inhibitors
same,IC50,[1],337 µM
YGPIPN [SEQ ID NO: 1],level at 2 h,[2],7.5 µg/mL
same,ACE inhibiting activity (in words),[1],strong inhibitors of ACE
same,IC50,[1],317 µM
GPIPN [SEQ ID NO: 7],ACE inhibiting activity (in words),[1],good ACE inhibitors
same,IC50,[1],287 µM
NSLPEN [SEQ ID NO: 5],ACE inhibiting activity (in words),[1],good ACE inhibitors
same,IC50,[1],369 µM
NCCCC[C@H](NC(=O)[C@@H]1CCCN1C(=O)[C@@H](N)CCC(=O)O)C(=O)O [SEQ ID NO: 9] (H-Glu-Pro-Lys-OH; N-terminus and C-terminus assumed),ACE inhibiting activity (in words),[1],good ACE inhibitors
same,IC50,[1],364 µM
